# Laboratory results taken from patent US12427210B2, “Compounds comprising a fibroblast activation protein ligand and use thereof” (priority 2019, dated 2025).
# Numbered stars: 1 amine (or outer) side, 2 acyl side, 3 side chain; on linkers, the order of the positions; unused ones are H or OH. Bridge positions count the residues as written; N and C are the ends. Peptide text beside a SMILES is read from it. * marks the point of attachment. X5 = O=C1CN2CCN3CCN(CC(=O)N4CCN(Cc5cc(C[*:1])cc(C[*:2])c5)CC4)CCN(CC2)CC(=O)[O][Eu]([O]1)[O]C(=O)C3; Hexanoyl = CCCCCC(=O)*
# Tests used:
# 5-HT2B (h) = 5-HT2B (h) (Homo sapiens, UniProt P41595); conditions: read-out: Ki Ref; reference compound
# Renin = biological target: T1, Renin (Homo sapiens, UniProt P00797); assay: biochemical; conditions: read-out: Percentage inhibition (%), Reference
# T1 sequence (P00797 67-406): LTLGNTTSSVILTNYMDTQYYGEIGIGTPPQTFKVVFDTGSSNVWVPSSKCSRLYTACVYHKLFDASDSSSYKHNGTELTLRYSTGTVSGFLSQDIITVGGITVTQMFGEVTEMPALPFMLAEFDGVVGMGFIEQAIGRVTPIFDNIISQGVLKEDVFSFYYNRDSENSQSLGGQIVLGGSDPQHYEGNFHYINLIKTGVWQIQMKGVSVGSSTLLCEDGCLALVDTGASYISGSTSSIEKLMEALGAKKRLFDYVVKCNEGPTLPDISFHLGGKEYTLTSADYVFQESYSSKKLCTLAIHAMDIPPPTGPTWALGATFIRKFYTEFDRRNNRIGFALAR
# NMDA = conditions: read-out: Ki Ref; reference compound
# Caspase-3 = biological target: T2, Caspase-3 (Homo sapiens, UniProt P42574); conditions: 100 nM
# T2 sequence (P42574 29-175 limits assumed): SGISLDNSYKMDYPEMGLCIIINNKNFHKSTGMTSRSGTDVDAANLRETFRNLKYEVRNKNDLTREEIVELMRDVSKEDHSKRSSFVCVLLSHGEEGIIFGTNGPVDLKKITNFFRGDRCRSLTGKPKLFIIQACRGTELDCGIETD
# T2 sequence (P42574 176-277 limits assumed): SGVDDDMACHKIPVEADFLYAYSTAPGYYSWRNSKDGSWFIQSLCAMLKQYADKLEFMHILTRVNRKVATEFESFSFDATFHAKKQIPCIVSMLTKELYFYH
# Caspase-7 = biological target: T3, Caspase-7 (Homo sapiens, UniProt P55210); conditions: 1 μM
# T3 sequence (P55210 24-198 limits assumed): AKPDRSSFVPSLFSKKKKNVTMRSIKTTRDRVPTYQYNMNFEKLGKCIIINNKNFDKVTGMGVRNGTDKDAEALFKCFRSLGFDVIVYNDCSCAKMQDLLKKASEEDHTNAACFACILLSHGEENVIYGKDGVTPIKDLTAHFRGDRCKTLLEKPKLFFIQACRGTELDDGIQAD
# T3 sequence (P55210 207-303 limits assumed): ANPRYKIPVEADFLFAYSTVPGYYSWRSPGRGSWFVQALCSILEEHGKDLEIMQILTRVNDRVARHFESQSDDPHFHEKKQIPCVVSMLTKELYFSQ
# in vitro [1] = conditions: human, plasma
# in vitro [2] = conditions: mouse, plasma
# in vitro [3] = conditions: rat, plasma
# [4] = biological target: FAP-expressing human WI-38 fibroblasts (Homo sapiens, UniProt Q12884); assay: cell-based
# FAP [5] = biological target: T4, FAP (Homo sapiens, UniProt Q12884); assay: biochemical
# FAP [6] = biological target: T4, FAP; assay: biochemical; remark: listed apart in the source
# Cathepsin B = Cathepsin B (Homo sapiens, UniProt P07858); conditions: 100 nM
# Cathepsin L = Cathepsin L (Homo sapiens, UniProt P07711); conditions: 1 μM
# Cathepsin S = Cathepsin S (Homo sapiens, UniProt P25774); conditions: 100 nM
# Cathepsin V = Cathepsin V (Homo sapiens, UniProt O60911); conditions: 100 nM
# Activated Protein C = Activated Protein C (Homo sapiens, UniProt P04070); assay: biochemical; conditions: read-out: Percentage inhibition (%), Reference
# alpha 1A (h) = biological target: T5, alpha 1A (h) (Homo sapiens, UniProt P35348); conditions: read-out: Ki Ref; reference compound
# T5 sequence (P35348 1-466): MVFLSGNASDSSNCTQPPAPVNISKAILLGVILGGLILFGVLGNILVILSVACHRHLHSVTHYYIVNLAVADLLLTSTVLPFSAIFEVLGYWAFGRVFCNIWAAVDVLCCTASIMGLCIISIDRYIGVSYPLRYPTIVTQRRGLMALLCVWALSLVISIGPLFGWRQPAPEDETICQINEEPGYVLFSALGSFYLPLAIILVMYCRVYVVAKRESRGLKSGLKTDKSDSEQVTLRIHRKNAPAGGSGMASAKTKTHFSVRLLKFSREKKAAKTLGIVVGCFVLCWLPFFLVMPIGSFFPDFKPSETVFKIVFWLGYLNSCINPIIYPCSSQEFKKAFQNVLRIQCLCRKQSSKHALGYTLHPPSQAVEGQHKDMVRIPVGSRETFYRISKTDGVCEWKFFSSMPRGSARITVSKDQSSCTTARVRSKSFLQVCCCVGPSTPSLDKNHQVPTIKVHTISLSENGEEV
# HEK-FAP tumors = assay: Efficacy study HEK-FAP
# Sarc4809 PDX tumors = assay: Efficacy study sarcoma Sarc4809 PDX model
# Cathepsin F = biological target: T6, Cathepsin F (Homo sapiens, UniProt Q9UBX1); conditions: 1 μM
# T6 sequence (Q9UBX1 271-484): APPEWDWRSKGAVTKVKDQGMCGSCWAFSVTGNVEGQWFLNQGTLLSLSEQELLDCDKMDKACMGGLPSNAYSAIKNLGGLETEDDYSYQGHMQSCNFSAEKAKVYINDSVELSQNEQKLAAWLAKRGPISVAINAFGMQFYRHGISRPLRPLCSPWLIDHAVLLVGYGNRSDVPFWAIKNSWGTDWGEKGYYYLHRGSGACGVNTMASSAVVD
# KV channel = conditions: read-out: Ki Ref; reference compound
# [7] = throughout the study, all groups
compound,measurement,setting,value
COc1cc(CC(C)N)c(OC)cc1I (racemic) [(±)DOI],Ki,5-HT2B (h),4.2 nM
"COCCCOc1cc(C[C@@H](C[C@H](N)[C@@H](O)C[C@H](C(=O)NCC(C)(C)C(N)=O)C(C)C)C(C)C)ccc1OC [Aliskiren, reference compound]",inhibition at 0.03 µM,Renin,99%
"O=C(O)[C@@H]1C[C@H](CP(=O)(O)O)CCN1 [CGS 19755, reference compound]",Ki,NMDA,140 nM
COC[C@@H]1CCCN1S(=O)(=O)c1ccc2c(c1)C(=O)C(=O)N2 [Caspase 3/7 Inhibitor I],"Percentage inhibition (%), Reference",Caspase-3,89%
same,"Percentage inhibition (%), Reference",Caspase-7,92%
"CCCCCC(=O)N[C@H]1CSCc2cc(CSCCNC(=O)CN3CCN4CCN5CCN(CC3)CC(=O)[O][Lu]([O]C(=O)C4)[O]C(=O)C5)cc(c2)CSC[C@@H](C(=O)O)NC(=O)[C@H](Cc2ccccc2)NC(=O)[C@H](CCC(N)=O)NC(=O)[C@H]([C@@H](C)O)NC(=O)[C@@H]2CCCN2C(=O)[C@@H]2CCCN2C1=O [Compound 3BP-3624, Hex-[Cys(tMeBn(LuDOTA-AET))-Pro-Pro-Thr-Gln-Phe-Cys]-OH]","remaining at 24 h, 9.8 µM",in vitro [1],100%
same,"remaining at 24 h, 9.8 µM",in vitro [2],100%
same,"remaining at 24 h, 9.8 µM",in vitro [3],100%
same,IC50,[4],< 10 nM
same,IC50,FAP [5],< 10 nM
same,Kd,FAP [6],< 10 nM
"CCCCCC(=O)N[C@H]1CSCc2cc(cc(CN3CCN(C(=O)CN4CCN5CCN6CCN(CC4)CC(=O)[O][Eu]([O]C(=O)C6)[O]C(=O)C5)CC3)c2)CSC[C@@H](C(=O)N[C@@H](CC(=O)O)C(N)=O)NC(=O)[C@H](Cc2ccccc2)NC(=O)[C@H](CCC(N)=O)NC(=O)[C@H]([C@@H](C)O)NC(=O)[C@@H]2CCCN2C(=O)[C@@H]2CCCN2C1=O [Compound 3BP-3661, Hex-[Cys(tMeBn(EuDOTA-PP))-Pro-Pro-Thr-Gln-Phe-Cys]-Asp-NH2] (Hexanoyl-CPPTQFCD-NH2; linker 1-7 via X5)",IC50,[4],< 10 nM
same,IC50,FAP [5],< 10 nM
"CCCCCC(=O)N[C@H]1CSCc2cc(CSCCNC(=O)CN3CCN4CCN5CCN(CC3)CC(=O)[O][Eu]([O]C(=O)C4)[O]C(=O)C5)cc(c2)CSC[C@@H](C(=O)O)NC(=O)[C@H](Cc2ccccc2)NC(=O)[C@H](CCC(N)=O)NC(=O)[C@H]([C@@H](C)O)NC(=O)[C@@H]2CCCN2C(=O)[C@@H]2CCCN2C1=O [Compound 3BP-3662, Hex-[Cys(tMeBn(EuDOTA-AET))-Pro-Pro-Thr-Gln-Phe-Cys]-OH]",IC50,[4],< 10 nM
same,IC50,FAP [5],< 10 nM
"CCCCCC(=O)N[C@H]1CSCc2cc(CSCCNC(=O)CN3CCN4CCN5CCN(CC3)CC(=O)[O][Ga]([O]C(=O)C4)[O]C(=O)C5)cc(c2)CSC[C@@H](C(=O)O)NC(=O)[C@H](Cc2ccccc2)NC(=O)[C@H](CCC(N)=O)NC(=O)[C@H]([C@@H](C)O)NC(=O)[C@@H]2CCCN2C(=O)[C@@H]2CCCN2C1=O [Compound 3BP-3949, Hex-[Cys(tMeBn(GaDOTA-AET))-Pro-Pro-Thr-Gln-Phe-Cys]-OH]",IC50,[4],< 10 nM
same,IC50,FAP [5],< 10 nM
same,Kd,FAP [6],< 10 nM
"CCCCCC(=O)N[C@H]1CSCc2cc(CSCCNC(=O)CN3CCN4CCN(CC(=O)O)CCN(CC3)CC(=O)[O][Cu][O]C(=O)C4)cc(c2)CSC[C@@H](C(=O)O)NC(=O)[C@H](Cc2ccccc2)NC(=O)[C@H](CCC(N)=O)NC(=O)[C@H]([C@@H](C)O)NC(=O)[C@@H]2CCCN2C(=O)[C@@H]2CCCN2C1=O [Compound 3BP-4293, Hex-[Cys-(tMeBn(CuDOTA-AET))-Pro-Pro-Thr-Gln-Phe-Cys]-OH]",IC50,[4],< 10 nM
same,IC50,FAP [5],< 10 nM
"CCCCCC(=O)N[C@H]1CSCc2cc(CSCCNC(=O)CN3CCN4CCN(CC(=O)O)CCN(CC3)CC(=O)[O][Zn][O]C(=O)C4)cc(c2)CSC[C@@H](C(=O)O)NC(=O)[C@H](Cc2ccccc2)NC(=O)[C@H](CCC(N)=O)NC(=O)[C@H]([C@@H](C)O)NC(=O)[C@@H]2CCCN2C(=O)[C@@H]2CCCN2C1=O [Compound 3BP-4343, Hex-[Cys-(tMeBn(ZnDOTA-AET))-Pro-Pro-Thr-Gln-Phe-Cys]-OH]",IC50,[4],< 10 nM
same,IC50,FAP [5],< 10 nM
"CC(C)C[C@H](NC(=O)[C@H]1O[C@@H]1C(=O)O)C(=O)NCCCCN=C(N)N [Compound E-64, E-64]","Percentage inhibition (%), Reference",Cathepsin B,97%
same,"Percentage inhibition (%), Reference",Cathepsin L,97%
same,"Percentage inhibition (%), Reference",Cathepsin S,91%
same,"Percentage inhibition (%), Reference",Cathepsin V,83%
"[H]/N=C(/N)c1ccc(NCc2nc3cc(C(=O)N(CCC(=O)O)c4ccccn4)ccc3n2C)cc1 [Dabigatran, reference compound]",inhibition at 20 µM,Activated Protein C,74%
COc1cccc(OC)c1OCCNCC1COc2ccccc2O1 (stereo not shown) [WB 4101],Ki,alpha 1A (h),0.24 nM
"CCCCCC(=O)N[C@H]1CSCc2cc(CSCCNC(=O)CN3CCN(CC(=O)O)CCN(CC(=O)O)CCN(CC(=O)O)CC3)cc(c2)CSC[C@@H](C(=O)O)NC(=O)[C@H](Cc2ccccc2)NC(=O)[C@H](CCC(N)=O)NC(=O)[C@H]([C@@H](C)O)NC(=O)[C@@H]2CCCN2C(=O)[C@@H]2CCCN2C1=O [^177Lu-3BP-3554, metal not drawn]",body weight loss,HEK-FAP tumors; [7],No treatment-related body weight loss
same,body weight loss (BWL),Sarc4809 PDX tumors; [7],No treatment-related body weight loss
CCCCCC(=O)N[C@H]1CSCc2cc(CSCCNC(=O)CN3CCN4CCN5CCN(CC3)CC(=O)[O][Lu]([O]C(=O)C4)[O]C(=O)C5)cc(c2)CSC[C@@H](C(=O)O)NC(=O)[C@H](Cc2ccccc2)NC(=O)[C@H](CCC(N)=O)NC(=O)[C@H]([C@@H](C)O)NC(=O)[C@@H]2CCCN2C(=O)[C@@H]2CCCN2C1=O [^natLu-3BP-3554],mean tumor volume (MTV),"HEK-FAP tumors; cold compound, single i.v. injection Day 0, day 14",1392±420 mm^3
same,MTV,"Sarc4809 PDX tumors; cold compound (control group), day 31",1225±775 mm^3
Cystatin C,"Percentage inhibition (%), Reference",Cathepsin F,74%
alpha-dendrotoxin [reference compound],Ki,KV channel,0.097 nM
